The subject of test [1] is Sur. As to the kind of experiment: Whole plant sugarbeet response to postemergence ALS-inhibiting herbicides. The format is in vivo, Beta vulgaris L.
Test [2] deals with Rel-1. The test is described as above. The class given is in vivo, Beta vulgaris L. The note with it: Rel-1 whole plant, herbicide applied postemergence.
Test [3] relates to sensitive cells. The test can be described thus: Cell selection on herbicide-supplemented solid B1 media. The class given is cell-based, Beta vulgaris L. The note with it: 50 nM in solid B1 media, 8-12 weeks, dim fluorescent light. The source says:
Rel-1 (Regenerating East Lansing-1) is a highly regenerable male fertile sugar beet line used for initial cell selection for herbicide-resistant mutant to the sulfonylureas and is used as a sensitive control for most experiments. CR1-B This sugar beet isolate was developed by plating Rel-1 cells on chlorsulfuron-containing media. This variant is sulfonylurea resistant with modest resistance to the triazolopyrimidine herbicide, flumetsulam, but no imidazolinone resistance. This variant has been described by Saunders et al. (Crop Sci. 32:1357-1360) and Hart et al. (Weed Sci. 40:378-383 and 41:317-324). The SU resistance gene has been labeled Sur. 93R30B This isolate was developed by plating cells of a highly regenerable, Sur homozygous sugar beet plant (descendant of CR1-B) on media containing imazethapyr. EL-49 East Lansing 49, released by the USDA in 1993. Sugar beet line homozygous for the Sur gene, used for a sulfonylurea-resistant, imazethapyr- sensitive control. • a. Plants were selected as source materials for somaclonal selection based on their ability to generate callus under high cytokinin conditions (in B1 media) and regenerate shoots from callus. […]

Test [4] has as its system 93R30B. As to the kind of experiment: Whole plant sugarbeet response to postemergence ALS-inhibiting herbicides. The class given is in vivo, Beta vulgaris L.
The subject of test [5] is Sir-13. The test is described as above. The class given is in vivo, Beta vulgaris L.

As for `CCc1cnc(C2=NC(C)(C(C)C)C(=O)N2)c(C(=O)O)c1` (centres unmarked) [Imazethapyr], the resistance in test [1] (Sur single mutant, postemergence to whole plants) came to 3 fold; in test [4] (SB double mutant, postemergence to whole plants), 300 fold; in test [5] (Sir-13 single mutant, postemergence to whole plants) it was 100 fold. The R/S is given as 3 X in test [1] (Sur whole plant, postemergence, relative to Rel-1); 300 X in test [4] (93R30B (SB) whole plant, postemergence, relative to Rel-1); 100 X in test [5] (Sir-13 whole plant, postemergence, relative to Rel-1). In test [2], this compound yielded an I50 of 0.5 g ha^-1. In addition, the cell survival result in test [3] is recorded as “all sensitive cells died”.

For the origin of these results see EP0960190B1, “IMI[…] RESISTANT SUGAR BEET PLANTS” (Michigan State University, priority 1996, dated 1998).
